Organism: Rattus norvegicus
Experiment: Open TG-GATES - Regimen: Daily Repeat
Format: toxicity, organism-based, Sprague-Dawley
Design: regimen Daily Repeat, gender Male, age 6 weeks
Details: in vivo, po, route gavage; for gamma-GTP / ALP / ALT / AST / BUN / CRE / Ca / Cl / DBIL / GLC / IP / K / LDH / Na / PL / RALB / TBIL / TC / TG / TP: tissue Plasma; for APTT / Bas / Eos / Fbg / Ht / Lym / MCH / MCHC / MCV / Mono / Neu / PT / Plat / RBC / Ret / WBC: tissue Blood; for KIDNEY_L / KIDNEY_R / KIDNEY_TOTAL: tissue Kidney; for LIVER: tissue Liver
[1] = 10 mg/kg, 72 h, dose level Low, time 3 day
[2] = 10 mg/kg, […], dose level Low, time 7 day
[3] = 10 mg/kg, […], dose level Low, time 14 day
[4] = 10 mg/kg, […], dose level Low, time 28 day

`Cc1cccc(Nc2cc(Cl)nc(SCC(=O)O)n2)c1C` [PIRINIXIC ACID] showed a gamma-GTP (0 mg/kg, […], dose level Control, time 28 day) of 1 IU/L, a TERMINAL_BW [1] of 232.6 g and an APTT [1] of 15.8 s. For the same compound, the Bas [1] was 0%, the Eos [1] was 1% and the Fbg [1] was 215.2 mg/dL. For the same compound, the Ht [1] was 39%, the Lym [1] was 76.6% and the MCH [1] was 21.6 pg. For the same compound, the MCHC [1] was 34%, the MCV [1] was 63.6 fL and the Mono [1] was 2.6%. It also gave a Neu [1] of 19.2%, a PT [1] of 12.5 s and a Plat [1] of 111.3 x10_4/uL. The RBC [1] was 612.8 x10_4/ul, the Ret [1] was 6.1% and the WBC [1] was 76.7 x10_2/uL. It also gave a KIDNEY_L [1] of 1 g, a KIDNEY_R [1] of 1 g and a KIDNEY_TOTAL [1] of 1.9 g. It also gave an LIVER [1] of 14.4 g, an ALP [1] of 2039.8 IU/L and an ALT [1] of 60.6 IU/L. For the same compound, the AST [1] was 81.6 IU/L, the BUN [1] was 14.6 mg/dL and the CRE [1] was 0.2 mg/dL. It also gave a Ca [1] of 10.8 mg/dL, a Cl [1] of 106 meq/L and a DBIL [1] of 0.02 mg/dL. The GLC [1] was 210 mg/dL, the IP [1] was 7.5 mg/dL and the K [1] was 4.1 meq/L. The LDH [1] was 90 IU/L, the Na [1] was 143.8 meq/L and the PL [1] was 111.8 mg/dL. It also gave an RALB [1] of 2.7 g/dL, a TBIL [1] of 0.03 mg/dL and a TC [1] of 55 mg/dL. For the same compound, the TG [1] was 31.2 mg/dL, the TP [1] was 5.4 g/dL and the gamma-GTP [1] was 1.2 IU/L. The TERMINAL_BW [2] was 276.5 g, the TERMINAL_BW [3] was 313.7 g and the TERMINAL_BW [4] was 373.2 g. The APTT [2] was 17.8 s, the Bas [2] was 0% and the Eos [2] was 1%. It also gave a Fbg [2] of 262.8 mg/dL, a Ht [2] of 38.4% and a Lym [2] of 76.4%. For the same compound, the MCH [2] was 21.6 pg, the MCHC [2] was 34.9% and the MCV [2] was 61.8 fL. It also gave a Mono [2] of 3.2%, a Neu [2] of 19.2% and a PT [2] of 12.6 s. It also gave a Plat [2] of 130.2 x10_4/uL, an RBC [2] of 621.6 x10_4/ul and a Ret [2] of 5.9%. The WBC [2] was 93.9 x10_2/uL, the APTT [3] was 17.3 s and the Bas [3] was 0.2%. For the same compound, the Eos [3] was 1%, the Fbg [3] was 262.8 mg/dL and the Ht [3] was 38.9%. It also gave a Lym [3] of 78.8%, an MCH [3] of 20.7 pg and an MCHC [3] of 35.3%. It also gave an MCV [3] of 58.6 fL, a Mono [3] of 2.8% and a Neu [3] of 16%. For the same compound, the PT [3] was 12.5 s, the Plat [3] was 132.4 x10_4/uL and the RBC [3] was 664.6 x10_4/ul. The Ret [3] was 4.7%, the WBC [3] was 110.5 x10_2/uL and the APTT [4] was 16.3 s. For the same compound, the Bas [4] was 0%, the Eos [4] was 1% and the Fbg [4] was 251.2 mg/dL. It also gave a Ht [4] of 39.5%, a Lym [4] of 76.8% and an MCH [4] of 19.7 pg. For the same compound, the MCHC [4] was 35.9%, the MCV [4] was 54.9 fL and the Mono [4] was 3.6%. It also gave a Neu [4] of 18%, a PT [4] of 12.2 s and a Plat [4] of 118 x10_4/uL. The RBC [4] was 720.4 x10_4/ul, the Ret [4] was 2.7% and the WBC [4] was 97.4 x10_2/uL. It also gave a KIDNEY_L [2] of 1.2 g, a KIDNEY_R [2] of 1.1 g and a KIDNEY_TOTAL [2] of 2.3 g. It also gave a KIDNEY_L [3] of 1.3 g, a KIDNEY_R [3] of 1.3 g and a KIDNEY_TOTAL [3] of 2.6 g. The KIDNEY_L [4] was 1.4 g, the KIDNEY_R [4] was 1.4 g and the KIDNEY_TOTAL [4] was 2.9 g. The LIVER [2] was 20.3 g, the LIVER [3] was 22.8 g and the LIVER [4] was 26.4 g. It also gave an ALP [2] of 1837.8 IU/L, an ALT [2] of 49.2 IU/L and an AST [2] of 65.4 IU/L. It also gave a BUN [2] of 18.4 mg/dL, a CRE [2] of 0.2 mg/dL and a Ca [2] of 11.2 mg/dL. It also gave a Cl [2] of 102.4 meq/L, a DBIL [2] of 0.014 mg/dL and a GLC [2] of 202.6 mg/dL. For the same compound, the IP [2] was 7.2 mg/dL, the K [2] was 4.2 meq/L and the LDH [2] was 98.8 IU/L. It also gave a Na [2] of 142.2 meq/L, a PL [2] of 148.6 mg/dL and an RALB [2] of 3 g/dL. For the same compound, the TBIL [2] was 0.026 mg/dL, the TC [2] was 77.6 mg/dL and the TG [2] was 60.4 mg/dL. For the same compound, the TP [2] was 6.2 g/dL, the gamma-GTP [2] was 1 IU/L and the ALP [3] was 1550.8 IU/L. For the same compound, the ALT [3] was 45 IU/L, the AST [3] was 64 IU/L and the BUN [3] was 17.4 mg/dL. For the same compound, the CRE [3] was 0.2 mg/dL, the Ca [3] was 10.5 mg/dL and the Cl [3] was 103.2 meq/L. For the same compound, the DBIL [3] was 0.016 mg/dL, the GLC [3] was 206.8 mg/dL and the IP [3] was 7.4 mg/dL. It also gave a K [3] of 3.8 meq/L, an LDH [3] of 97.2 IU/L and a Na [3] of 142.2 meq/L. The PL [3] was 144.2 mg/dL, the RALB [3] was 2.9 g/dL and the TBIL [3] was 0.032 mg/dL. It also gave a TC [3] of 67.2 mg/dL, a TG [3] of 53.6 mg/dL and a TP [3] of 6.2 g/dL. The gamma-GTP [3] was 1.2 IU/L, the ALP [4] was 1413.8 IU/L and the ALT [4] was 50.4 IU/L. The AST [4] was 63.6 IU/L, the BUN [4] was 17.6 mg/dL and the CRE [4] was 0.2 mg/dL. For the same compound, the Ca [4] was 11 mg/dL, the Cl [4] was 103.8 meq/L and the DBIL [4] was 0.014 mg/dL. For the same compound, the GLC [4] was 188.6 mg/dL, the IP [4] was 7.4 mg/dL and the K [4] was 3.7 meq/L. It also gave an LDH [4] of 115 IU/L, a Na [4] of 143 meq/L and a PL [4] of 155.2 mg/dL. The RALB [4] was 3.1 g/dL, the TBIL [4] was 0.048 mg/dL and the TC [4] was 79.4 mg/dL. It also gave a TG [4] of 63.4 mg/dL and a TP [4] of 6.8 g/dL.

Source: ChEMBL document CHEMBL3885861, “Open TG-GATES”
